Results taken from patent publication US6753345B2, “7-hexanolytaxol and methods for preparing the same” (Hauser, Inc., priority 1998, dated 2004).
Converted amounts (≈) assume the structure as drawn. Like-named read-outs stand apart in the source and are kept apart here.

Key:
DU-145 = assay: SRB cytotoxicity screening assay (Prostate Cancer)
OVCAR-6 = assay: SRB cytotoxicity screening assay (Ovarian)
MDA-MB-231/ATCC = assay: SRB cytotoxicity screening assay (Breast Cancer)
SF-539 = assay: SRB cytotoxicity screening assay (CNS Cancer)
U251 = assay: SRB cytotoxicity screening assay (CNS Cancer)
OVCAR-4 = assay: SRB cytotoxicity screening assay (Ovarian)
RXF-393 = assay: SRB cytotoxicity screening assay (Renal Cancer); conditions: Homo sapiens, RXF 393, 48 h
HCT-116 = assay: SRB cytotoxicity screening assay (Colon Cancer)
SR = assay: SRB cytotoxicity screening assay (Leukemia); conditions: Homo sapiens, SR, 48 h
CCRF-CEM cells = assay: G2/M arrest; assay type: cell-based; conditions: minimum concentration that results in 60% of CCRF-CEM cells to arrest in G2-M
EKVX = assay: SRB cytotoxicity screening assay (Non-Small Cell Lung Cancer)
26 cell lines = assay: 26 cell line growth inhibition screen, sulforhodamine stain; assay type: cell-based; conditions: 48 h
COLO 205 = assay: SRB cytotoxicity screening assay (Colon Cancer)
NCI-H522 = assay: SRB cytotoxicity screening assay (Non-Small Cell Lung Cancer)
[1] = test system: cell line panel (60 lines, nine disease-related subpanels); assay: SRB cytotoxicity screening assay, whole cell line panel (mean values)
OVCAR-3 = assay: SRB cytotoxicity screening assay (Ovarian)
MALME-3M = assay: SRB cytotoxicity screening assay (Melanoma)
RPMI-8226 = assay: SRB cytotoxicity screening assay (Leukemia); conditions: Homo sapiens, RPMI-8226, 48 h
NCI-H226 = assay: SRB cytotoxicity screening assay (Non-Small Cell Lung Cancer)
SW-620 = assay: SRB cytotoxicity screening assay (Colon Cancer)
LOX-IMVI = assay: cells; conditions: Homo sapiens, 48 h, read-out: Log10 LC50 (converted)
UACC-257 = assay: SRB cytotoxicity screening assay (Melanoma)
K-562 = assay: SRB cytotoxicity screening assay (Leukemia)
TK-10 = assay: SRB cytotoxicity screening assay (Renal Cancer)
A498 = assay: SRB cytotoxicity screening assay (Renal Cancer)
[2] = read-out: Log10 GI50 (converted)
[3] = read-out: Log10 LC50 (converted)
[4] = mean value over the cell line panel

CCCCCC(=O)O[C@H]1C[C@H]2OC[C@@]2(OC(C)=O)[C@H]2[C@H](OC(=O)c3ccccc3)[C@]3(O)C[C@H](OC(=O)[C@H](O)[C@@H](NC(=O)c4ccccc4)c4ccccc4)C(C)=C([C@@H](OC(C)=O)C(=O)[C@]12C)C3(C)C [7-hexanoyltaxol]
Log10 TGI (DU-145; DU-145 (Prostate Cancer), PG=0, 48 hour incubation): −7.00 molar
GI50 (DU-145; Homo sapiens, DU-145, 48 h, read-out: Log10 GI50 (converted)): < 0.01 µM
CC50 (DU-145; Homo sapiens, DU-145, 48 h, read-out: Log10 LC50 (converted)): 37.2 µM
GI50 (OVCAR-6; 48 h, read-out: Log10 GI50 (converted)): < 0.01 µM
CC50 (OVCAR-6; 48 h, read-out: Log10 LC50 (converted)): 85.1 µM
Log10 TGI (OVCAR-6; OVCAR-6 (Ovarian), PG=0, 48 hour incubation): −4.88 molar
GI50 (MDA-MB-231/ATCC; Homo sapiens, MDA-MB-231, 48 h, read-out: Log10 GI50 (converted)): 0.0282 µM
CC50 (MDA-MB-231/ATCC; Homo sapiens, MDA-MB-231, 48 h, read-out: Log10 LC50 (converted)): 23.4 µM
Log10 TGI (MDA-MB-231/ATCC; MDA-MB-231/ATCC (Breast Cancer), PG=0, 48 hour incubation): −6.13 molar
GI50 (SF-539; Homo sapiens, SF-539, 48 h, read-out: Log10 GI50 (converted)): < 0.01 µM
CC50 (SF-539; Homo sapiens, SF-539, 48 h, read-out: Log10 LC50 (converted)): 1.51 µM
Log10 TGI (SF-539; SF-539 (CNS Cancer), PG=0, 48 hour incubation): −7.32 molar
GI50 (U251; Homo sapiens, U-251, 48 h, read-out: Log10 GI50 (converted)): < 0.01 µM
CC50 (U251; Homo sapiens, U-251, 48 h, read-out: Log10 LC50 (converted)): 32.4 µM
Log10 TGI (U251; U251 (CNS Cancer), PG=0, 48 hour incubation): −4.98 molar
GI50 (OVCAR-4; Homo sapiens, OVCAR-4, 48 h, read-out: Log10 GI50 (converted)): 1.58 µM
CC50 (OVCAR-4; Homo sapiens, OVCAR-4, 48 h, read-out: Log10 LC50 (converted)): > 100 µM
Log10 TGI (OVCAR-4; OVCAR-4 (Ovarian), PG=0, 48 hour incubation): −4.21 molar
GI50 (RXF-393; [2]): < 0.01 µM
CC50 (RXF-393; [3]): 91.2 µM
Log10 TGI (HCT-116; HCT-116 (Colon Cancer), PG=0, 48 hour incubation): −4.94 molar
GI50 (HCT-116; Homo sapiens, HCT-116, 48 h, read-out: Log10 GI50 (converted)): < 0.01 µM
CC50 (HCT-116; Homo sapiens, HCT-116, 48 h, read-out: Log10 LC50 (converted)): > 100 µM
GI50 (SR; [2]): < 0.01 µM
CC50 (SR; [3]): > 100 µM
G2/M arrest MED (CCRF-CEM cells): 0.10 µg/mL
Log10 TGI (EKVX; EKVX (Non-Small Cell Lung Cancer), PG=0, 48 hour incubation): −4.29 molar
GI50 (EKVX; Homo sapiens, EKVX, 48 h, read-out: Log10 GI50 (converted)): 0.398 µM
CC50 (EKVX; Homo sapiens, EKVX, 48 h, read-out: Log10 LC50 (converted)): > 100 µM
IC50 (26 cell lines; read-out: Mean IC50 (26 cell line Mean Growth inhibition IC50 value)): 8 ng/mL (≈ 8.4 nM)
IC50 (26 cell lines; read-out: Min IC50 (lowest observed IC50 value in 26 cell line screen)): 1 ng/mL (≈ 1.05 nM)
Log10 TGI (COLO 205; COLO 205 (Colon Cancer), PG=0, 48 hour incubation): −7.38 molar
GI50 (COLO 205; Homo sapiens, COLO 205, 48 h, read-out: Log10 GI50 (converted)): < 0.01 µM
CC50 (COLO 205; Homo sapiens, COLO 205, 48 h, read-out: Log10 LC50 (converted)): 26.3 µM
GI50 (NCI-H522; Homo sapiens, NCI-H522, 48 h, read-out: Log10 GI50 (converted)): < 0.01 µM
CC50 (NCI-H522; Homo sapiens, NCI-H522, 48 h, read-out: Log10 LC50 (converted)): > 100 µM
Log10 TGI (NCI-H522; NCI-H522 (Non-Small Cell Lung Cancer), PG=0, 48 hour incubation): −5.91 molar
potency compared with paclitaxel ([1]; cancer cell line panel, Table I): in most instances is as potent and in some instances more potent than paclitaxel
Log10 GI50, MG_MID [1, 4]: −7.79 molar
Log10 LC50, MG_MID [1, 4]: −4.32 molar
Log10 TGI, MG_MID [1, 4]: −5.59 molar
GI50 (OVCAR-3; Homo sapiens, OVCAR-3, 48 h, read-out: Log10 GI50 (converted)): < 0.01 µM
CC50 (OVCAR-3; Homo sapiens, OVCAR-3, 48 h, read-out: Log10 LC50 (converted)): 20.9 µM
Log10 TGI (OVCAR-3; OVCAR-3 (Ovarian), PG=0, 48 hour incubation): −7.65 molar
GI50 (MALME-3M; Homo sapiens, Malme-3M, 48 h, read-out: Log10 GI50 (converted)): < 0.01 µM
CC50 (MALME-3M; Homo sapiens, Malme-3M, 48 h, read-out: Log10 LC50 (converted)): 81.3 µM
Log10 TGI (MALME-3M; MALME-3M (Melanoma), PG=0, 48 hour incubation): −4.65 molar
GI50 (RPMI-8226; [2]): < 0.01 µM
CC50 (RPMI-8226; [3]): > 100 µM
GI50 (NCI-H226; Homo sapiens, NCI-H226, 48 h, read-out: Log10 GI50 (converted)): < 0.01 µM
CC50 (NCI-H226; Homo sapiens, NCI-H226, 48 h, read-out: Log10 LC50 (converted)): > 100 µM
Log10 TGI (NCI-H226; NCI-H226 (Non-Small Cell Lung Cancer), PG=0, 48 hour incubation): −4.76 molar
GI50 (SW-620; Homo sapiens, SW-620, 48 h, read-out: Log10 GI50 (converted)): < 0.01 µM
CC50 (SW-620; Homo sapiens, SW-620, 48 h, read-out: Log10 LC50 (converted)): > 100 µM
Log10 TGI (SW-620; SW-620 (Colon Cancer), PG=0, 48 hour incubation): >−4.00 molar
CC50 (LOX-IMVI): 57.5 µM
CC50 (UACC-257; Homo sapiens, UACC-257, 48 h, read-out: Log10 LC50 (converted)): > 100 µM
Log10 TGI (UACC-257; UACC-257 (Melanoma), PG=0, 48 hour incubation): −4.00 molar
GI50 (K-562; Homo sapiens, K562, 48 h, read-out: Log10 GI50 (converted)): < 0.01 µM
CC50 (K-562; Homo sapiens, K562, 48 h, read-out: Log10 LC50 (converted)): > 100 µM
Log10 TGI (K-562; K-562 (Leukemia), PG=0, 48 hour incubation): −7.05 molar
GI50 (TK-10; Homo sapiens, TK-10, 48 h, read-out: Log10 GI50 (converted)): 0.0324 µM
CC50 (TK-10; Homo sapiens, TK-10, 48 h, read-out: Log10 LC50 (converted)): > 100 µM
Log10 TGI (TK-10; TK-10 (Renal Cancer), PG=0, 48 hour incubation): −4.45 molar
Log10 TGI (A498; A498 (Renal Cancer), PG=0, 48 hour incubation): −7.29 molar
GI50 (A498; Homo sapiens, A498, 48 h, read-out: Log10 GI50 (converted)): < 0.01 µM
CC50 (A498; Homo sapiens, A498, 48 h, read-out: Log10 LC50 (converted)): > 100 µM
